Data as given in PMC11743598, “Identification of a binding site for small molecule inhibitors targeting human TRPM4” (Nature Communications, 2025).

Molecular target: T1, HsTRPM4 (Homo sapiens, UniProt Q8TD43)
T1 construct: gene TRPM4; full-length, wild-type codon-optimized gene, C-terminal HA and FLAG tags, pcDNA3.1; patch clamp in transiently transfected cells (TsA-201); cryo-EM from HEK293F, SMA native nanodiscs, C4 symmetry (homotetramer)
Assay: cryo-EM structure, […] A
Assay type: binding
Details: endogenous lipid assigned from density, three sites per protomer, SMA native nanodiscs

T1 sequence (Q8TD43 whole entry): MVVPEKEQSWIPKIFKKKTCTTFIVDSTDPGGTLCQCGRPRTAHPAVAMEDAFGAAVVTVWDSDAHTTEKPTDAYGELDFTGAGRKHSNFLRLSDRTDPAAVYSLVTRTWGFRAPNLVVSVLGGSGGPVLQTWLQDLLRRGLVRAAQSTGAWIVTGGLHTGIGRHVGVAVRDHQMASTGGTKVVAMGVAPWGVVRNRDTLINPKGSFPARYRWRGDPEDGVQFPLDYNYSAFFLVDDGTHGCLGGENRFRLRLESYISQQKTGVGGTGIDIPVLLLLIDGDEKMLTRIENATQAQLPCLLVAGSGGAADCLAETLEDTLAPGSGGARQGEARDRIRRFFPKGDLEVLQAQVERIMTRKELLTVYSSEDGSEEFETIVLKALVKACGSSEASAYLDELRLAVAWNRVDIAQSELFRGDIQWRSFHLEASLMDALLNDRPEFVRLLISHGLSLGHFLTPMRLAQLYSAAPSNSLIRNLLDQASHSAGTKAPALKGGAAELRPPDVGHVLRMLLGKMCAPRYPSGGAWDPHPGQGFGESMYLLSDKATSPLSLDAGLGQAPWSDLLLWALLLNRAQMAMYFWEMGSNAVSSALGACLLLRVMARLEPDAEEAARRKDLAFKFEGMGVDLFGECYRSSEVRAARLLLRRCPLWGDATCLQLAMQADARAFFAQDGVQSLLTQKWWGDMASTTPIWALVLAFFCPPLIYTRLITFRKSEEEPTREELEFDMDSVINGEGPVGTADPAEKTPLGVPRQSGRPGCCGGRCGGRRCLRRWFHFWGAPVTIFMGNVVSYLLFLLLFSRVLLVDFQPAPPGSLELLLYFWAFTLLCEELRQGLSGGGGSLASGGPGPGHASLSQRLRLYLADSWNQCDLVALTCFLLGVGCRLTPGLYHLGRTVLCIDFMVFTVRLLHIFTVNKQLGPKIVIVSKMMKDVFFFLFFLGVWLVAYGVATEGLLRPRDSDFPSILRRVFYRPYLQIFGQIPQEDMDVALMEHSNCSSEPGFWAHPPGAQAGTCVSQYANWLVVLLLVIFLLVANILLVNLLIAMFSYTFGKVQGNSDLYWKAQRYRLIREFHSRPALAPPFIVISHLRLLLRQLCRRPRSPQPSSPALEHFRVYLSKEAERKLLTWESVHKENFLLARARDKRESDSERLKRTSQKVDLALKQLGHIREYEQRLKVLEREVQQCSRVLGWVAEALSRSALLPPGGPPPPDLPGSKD

Structure (SMILES): CC(C)CCC[C@@H](C)[C@H]1CC[C@H]2[C@@H]3CC=C4C[C@@H](O)CC[C@]4(C)[C@H]3CC[C@]12C [cholesterol]
- cryo-EM structure, 3.67 A: primarily three densities for cholesterol molecules bound to TRPM4 observed
